Reference: patent US20210198647A1, “Enhancers of Neurolysin Activity” (Texas Tech University System, priority 2018, published 2021)
Values joined by “and” are separate entries in the source; they are usually repeats but may differ in a detail not shown here. Equal values may be shown once. Read-outs that look alike come from different tables or passages of the source. Marks after values point to notes of the source that are not given here. Peptide text beside a SMILES is read from it.

Columns and labels:
[1] = target: thimet oligopeptidase (TOP) (Homo sapiens, UniProt P52888); experiment: Peptidase selectivity: quenched fluorescent substrate hydrolysis by TOP; settings: for effect on activity of TOP (in words): concentration-response up to 300 μM; for inhibition at 300 µM: read-out: inhibited activity of TOP by
Chain of thimet oligopeptidase (TOP) (P52888 whole entry): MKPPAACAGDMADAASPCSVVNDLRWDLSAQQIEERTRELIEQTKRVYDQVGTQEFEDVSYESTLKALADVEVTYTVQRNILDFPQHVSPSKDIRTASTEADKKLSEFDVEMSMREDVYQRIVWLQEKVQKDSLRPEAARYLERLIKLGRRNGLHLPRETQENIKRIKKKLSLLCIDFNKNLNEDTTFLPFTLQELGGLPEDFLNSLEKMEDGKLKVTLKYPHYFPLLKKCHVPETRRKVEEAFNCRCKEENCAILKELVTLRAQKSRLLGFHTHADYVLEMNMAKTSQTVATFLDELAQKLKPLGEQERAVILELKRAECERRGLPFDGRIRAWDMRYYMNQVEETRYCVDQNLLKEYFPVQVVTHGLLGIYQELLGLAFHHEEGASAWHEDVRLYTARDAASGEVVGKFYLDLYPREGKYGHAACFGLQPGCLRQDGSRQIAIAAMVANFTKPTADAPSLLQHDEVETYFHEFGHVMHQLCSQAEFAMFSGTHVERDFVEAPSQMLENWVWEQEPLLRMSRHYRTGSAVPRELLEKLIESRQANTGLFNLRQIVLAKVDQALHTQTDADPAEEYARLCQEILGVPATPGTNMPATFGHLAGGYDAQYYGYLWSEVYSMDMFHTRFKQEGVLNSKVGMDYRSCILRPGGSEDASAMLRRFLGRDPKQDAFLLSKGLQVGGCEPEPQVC
Description: Activity of recombinant human TOP was assessed in the same way as for neurolysin, except that the assay was carried out in the presence of 0.1 mM dithiothreitol (37).

Neurolysin (Nln) = target: T1, Neurolysin (Nln) (Rattus norvegicus, UniProt P42676); experiment: Nln activation in isolated enzyme assay (A50, Amax); format: biochemical; settings: 95% CI in parentheses; for Amax (maximum % activation achieved): 100% = normal enzyme turnover
T1 construct: polyhistidine (N); made in house; host or cells: Escherichia coli (pBAD/His vector), if the rat enzyme of b61 was used
T1 sequence (P42676 38-704): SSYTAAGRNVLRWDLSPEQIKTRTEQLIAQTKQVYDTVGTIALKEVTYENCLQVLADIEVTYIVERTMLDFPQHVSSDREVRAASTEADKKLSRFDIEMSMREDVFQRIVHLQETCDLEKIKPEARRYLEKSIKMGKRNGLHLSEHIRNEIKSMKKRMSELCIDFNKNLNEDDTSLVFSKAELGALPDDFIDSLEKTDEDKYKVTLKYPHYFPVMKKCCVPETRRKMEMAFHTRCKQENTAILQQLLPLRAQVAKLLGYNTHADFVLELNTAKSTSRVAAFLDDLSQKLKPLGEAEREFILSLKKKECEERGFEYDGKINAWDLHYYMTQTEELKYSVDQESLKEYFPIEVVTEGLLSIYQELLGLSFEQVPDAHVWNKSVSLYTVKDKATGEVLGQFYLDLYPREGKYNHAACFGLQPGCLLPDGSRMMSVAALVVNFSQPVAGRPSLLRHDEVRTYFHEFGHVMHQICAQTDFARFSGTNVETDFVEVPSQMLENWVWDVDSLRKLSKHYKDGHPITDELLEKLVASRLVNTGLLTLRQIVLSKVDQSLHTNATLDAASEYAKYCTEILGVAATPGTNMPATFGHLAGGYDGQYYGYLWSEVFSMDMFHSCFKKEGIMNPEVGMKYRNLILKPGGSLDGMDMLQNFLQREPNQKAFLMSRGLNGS

[2] = target: T2, angiotensin converting enzyme (ACE) (Homo sapiens, UniProt P12821); experiment: Peptidase selectivity: quenched fluorescent substrate hydrolysis by ACE; format: biochemical; settings: for effect on activity of ACE (in words): concentration-response up to 300 μM; for inhibition at 300 µM: 300 μM compound, read-out: inhibited activity of ACE by
T2 construct: purchased R & D systems 929-ZN
T2 sequence (P12821 30-1306): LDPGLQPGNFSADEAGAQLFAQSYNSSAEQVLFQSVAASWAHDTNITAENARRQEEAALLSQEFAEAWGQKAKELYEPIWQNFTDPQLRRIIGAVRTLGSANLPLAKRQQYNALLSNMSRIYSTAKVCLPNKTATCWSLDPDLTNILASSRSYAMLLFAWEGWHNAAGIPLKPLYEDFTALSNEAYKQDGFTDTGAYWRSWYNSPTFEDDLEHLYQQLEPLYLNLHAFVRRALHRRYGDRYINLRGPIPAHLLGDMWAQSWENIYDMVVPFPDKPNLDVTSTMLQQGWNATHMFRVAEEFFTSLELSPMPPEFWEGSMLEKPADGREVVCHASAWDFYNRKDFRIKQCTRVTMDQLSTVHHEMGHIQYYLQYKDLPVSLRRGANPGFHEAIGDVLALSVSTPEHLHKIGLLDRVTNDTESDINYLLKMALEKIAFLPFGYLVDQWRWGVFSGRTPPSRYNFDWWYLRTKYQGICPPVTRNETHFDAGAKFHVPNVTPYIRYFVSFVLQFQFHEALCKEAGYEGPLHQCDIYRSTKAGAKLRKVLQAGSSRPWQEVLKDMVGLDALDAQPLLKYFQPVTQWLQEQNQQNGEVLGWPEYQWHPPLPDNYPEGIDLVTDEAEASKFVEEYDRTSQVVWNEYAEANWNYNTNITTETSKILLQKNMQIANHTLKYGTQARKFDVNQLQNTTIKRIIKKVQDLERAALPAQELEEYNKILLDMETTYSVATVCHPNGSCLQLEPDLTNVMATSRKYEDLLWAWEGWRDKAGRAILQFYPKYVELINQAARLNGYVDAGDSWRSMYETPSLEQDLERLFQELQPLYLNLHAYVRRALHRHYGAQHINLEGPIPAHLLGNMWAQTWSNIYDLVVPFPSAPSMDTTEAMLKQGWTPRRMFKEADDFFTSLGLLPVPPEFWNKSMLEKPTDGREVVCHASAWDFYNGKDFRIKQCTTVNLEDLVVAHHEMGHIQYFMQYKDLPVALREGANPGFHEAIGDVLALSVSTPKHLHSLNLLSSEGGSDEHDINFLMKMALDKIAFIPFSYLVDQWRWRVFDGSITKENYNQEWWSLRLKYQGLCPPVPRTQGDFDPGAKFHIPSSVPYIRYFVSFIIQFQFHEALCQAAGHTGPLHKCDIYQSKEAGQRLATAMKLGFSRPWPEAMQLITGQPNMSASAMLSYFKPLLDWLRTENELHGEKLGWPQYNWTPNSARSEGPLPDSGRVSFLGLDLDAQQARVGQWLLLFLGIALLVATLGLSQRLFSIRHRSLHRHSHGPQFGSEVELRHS

[3] = test system: co-culture of primary mouse astrocytes and immortalized mouse endothelial cells (bEnd3); experiment: In vitro BBB permeability, apical to basolateral transport; format: in vitro ADME; settings: 10 μg/mL, 37° C.
Description: The permeability coefficient (Pe) was calculated from the cleared volume of each compound versus time. Values represent the mean±SD of three measurements.
Mouse primary astrocytes were isolated from the cerebral cortices of one day old pups (CD-1 mice, Charles Rivers Laboratory) following a literature method.^36 After extracting the brain, cortices were separated, minced and placed in Hank's balanced salt solution (HBSS) without calcium and magnesium, supplemented with gentamycin (10 μg/m). […] The cell suspensions were seeded into a T75 flask and the medium was changed every 3 days for 10-14 days or until reaching confluency.
For bEnd3 and astrocyte co-culture, the Transwell filters ([…] pore size, 12-well; Corning, Lowell, Mass.) were used. First, the Transwell filter was inverted and astrocytes at a density of 150,000 cells/filter were seeded onto the abluminal side of the filter and allowed to adhere for 4 hours. Then the Transwell filter was inverted back and the cells were grown for 2 days in astrocyte medium. At the end of 48 hours, bEnd3 cells at a density of 50,000 cells/filter were seeded onto the upper/luminal side of the filter and the co-culture of astrocytes and bEnd3 cells were grown for an additional 8 days. The medium for both compartments were changed every other day according to literature proceedures.^37
The apparent permeability coefficient (Pe, in cm/min) was calculated according to the cleared volume of each time point, as previously described.^38,39
Permeability measurement for each compound was run for 120 minutes. The media was removed and transwells were rinsed and incubated with HBSS buffer at 37° C. for 30 minutes. […] Concentration of compounds was determined by LC-MS/MS. Since the blank Transwell insert itself (without cells) provides resistance to the passage of buffer and compound from the donor to receiver chamber, the permeability of each compound was also measured in a blank insert and the final permeability coefficient results were calculated by considering the permeability of each compound in a blank insert.

[4] = Plasma and brain protein binding, rapid equilibrium dialysis (RED); format: in vitro ADME, mouse; settings: for fu in Plasma: 500 ng/mL
Description: Plasma and Brain Protein Binding: The rapid equilibrium dialysis (RED) plate and single-use inserts with a membrane MWCO of 8 kDa and sealing tapes for 96-well plates were purchased from (Pierce Biotechnology, Thermo Fisher Scientific, Waltham, Mass.). Test compounds were dissolved in dimethyl sulfoxide and then diluted to 10 μg/mL with water for binding studies. The stock solutions (10 μg/mL) were added to mouse brain homogenates or plasma. The final concentration of the compounds for the equilibrium dialysis experiment was 500 ng/mL. The RED device was assembled according to the manufacturer's instructions. A 200 μL aliquot of plasma or brain homogenate spiked with 500 ng/mL of selected compound was added to the sample chamber of insert (donor) and 400 μL of DPBS was added to the buffer chamber of the dialysis membrane (receiver). Then, the base plate was covered with a sealing tape and was incubated at 37° C. on an orbital shaker at 250 rpm for 4 hours to achieve equilibrium. Compounds were evaluated in triplicate for each experiment. At the end of incubation, equal volumes from both donor and receiver chambers were taken and placed in separate microcentrifuge for content analysis using LC-MS/MS.

[5] = target: T3, angiotensin converting enzyme 2 (ACE2) (Homo sapiens, UniProt Q9BYF1); experiment: Peptidase selectivity: quenched fluorescent substrate hydrolysis by ACE2; format: biochemical; settings: for effect on activity of ACE2 (in words): concentration-response up to 300 μM; for inhibition at 300 µM: 300 μM compound, read-out: inhibited activity of ACE2 by
T3 construct: purchased R & D systems 933-ZN
T3 sequence (Q9BYF1 18-805): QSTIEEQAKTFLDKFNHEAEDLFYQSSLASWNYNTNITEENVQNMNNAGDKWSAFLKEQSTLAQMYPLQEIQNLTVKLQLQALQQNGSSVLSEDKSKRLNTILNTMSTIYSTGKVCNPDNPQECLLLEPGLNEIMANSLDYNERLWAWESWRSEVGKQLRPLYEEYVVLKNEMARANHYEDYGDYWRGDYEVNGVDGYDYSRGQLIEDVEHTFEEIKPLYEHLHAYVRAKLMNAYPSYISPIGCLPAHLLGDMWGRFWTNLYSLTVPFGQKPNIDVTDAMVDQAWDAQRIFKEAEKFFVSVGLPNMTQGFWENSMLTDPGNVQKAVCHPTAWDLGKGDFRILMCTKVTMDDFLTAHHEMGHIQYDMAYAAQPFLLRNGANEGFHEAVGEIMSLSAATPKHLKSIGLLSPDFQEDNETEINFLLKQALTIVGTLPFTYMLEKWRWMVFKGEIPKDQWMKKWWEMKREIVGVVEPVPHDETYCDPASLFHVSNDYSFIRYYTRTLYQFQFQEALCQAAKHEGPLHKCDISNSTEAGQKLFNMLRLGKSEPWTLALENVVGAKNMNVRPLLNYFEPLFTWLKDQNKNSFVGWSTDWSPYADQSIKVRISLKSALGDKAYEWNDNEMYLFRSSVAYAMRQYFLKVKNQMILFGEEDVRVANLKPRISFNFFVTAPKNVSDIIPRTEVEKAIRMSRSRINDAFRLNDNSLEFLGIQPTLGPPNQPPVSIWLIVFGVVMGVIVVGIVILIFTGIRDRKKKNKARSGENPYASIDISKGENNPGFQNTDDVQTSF

[6] = In vitro metabolic stability in mouse plasma and brain homogenate; settings: 10% mouse brain homogenate; 500 ng/mL; 37° C.
in vitro = settings: mouse
neprilysin (NEP) = target: T4, neprilysin (NEP) (Homo sapiens, UniProt P08473); experiment: Peptidase selectivity: quenched fluorescent substrate hydrolysis by NEP; format: biochemical; settings: 300 μM compound; read-out: inhibited activity of NEP by
T4 construct: purchased R & D systems 1182-ZNC
T4 sequence (P08473 whole entry): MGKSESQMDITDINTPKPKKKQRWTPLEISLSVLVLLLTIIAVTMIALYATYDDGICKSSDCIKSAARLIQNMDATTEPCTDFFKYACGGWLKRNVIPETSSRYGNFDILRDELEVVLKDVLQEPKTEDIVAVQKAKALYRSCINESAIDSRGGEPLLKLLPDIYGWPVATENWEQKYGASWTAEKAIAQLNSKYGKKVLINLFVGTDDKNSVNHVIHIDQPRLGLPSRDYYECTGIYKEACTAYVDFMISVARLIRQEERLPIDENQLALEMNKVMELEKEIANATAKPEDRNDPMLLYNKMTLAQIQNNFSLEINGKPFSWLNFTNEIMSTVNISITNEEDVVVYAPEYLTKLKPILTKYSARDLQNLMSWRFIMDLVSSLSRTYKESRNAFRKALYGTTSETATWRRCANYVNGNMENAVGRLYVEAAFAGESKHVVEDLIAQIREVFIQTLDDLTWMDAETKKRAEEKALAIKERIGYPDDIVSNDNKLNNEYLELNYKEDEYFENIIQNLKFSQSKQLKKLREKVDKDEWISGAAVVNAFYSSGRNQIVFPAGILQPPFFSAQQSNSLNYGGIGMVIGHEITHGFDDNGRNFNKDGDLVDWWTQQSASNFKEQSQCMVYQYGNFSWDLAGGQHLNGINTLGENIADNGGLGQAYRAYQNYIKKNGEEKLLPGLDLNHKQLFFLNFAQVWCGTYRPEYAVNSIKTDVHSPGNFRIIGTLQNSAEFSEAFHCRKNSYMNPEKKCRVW

[7] = target: T5, rat recombinant neurolysin (Rattus norvegicus, UniProt P42676); experiment: Enzymatic assay: QFS hydrolysis by rat recombinant neurolysin; format: biochemical; settings: for Km value decreased by / Vmax increased by: 40 μM modulator; for Vmax: QFS hydrolysis; for activity at 10 µM: read-out: % activity at 10; for activity at 100 µM: read-out: % activity at (100)
T5 construct: polyhistidine (N); made in house; host or cells: Escherichia coli (pBAD/His vector)
T5 sequence (P42676 38-704): as the sequence (P42676 38-704) above
Description: Rat recombinant neurolysin—N-terminal polyhistidine tagged recombinant rat neurolysin was produced in Escherichia coli using a plasmid construct in pBAD/His vector system (Invitrogen) kindly provided by Dr. David W. Rodgers (University of Kentucky) (32,33). Bacterial culture was carried out in Terrific Broth in 2 L Erlenmeyer flasks using an incubator shaker (1-2400, New Brunswick Scientific). Expression was induced by addition of arabinose (1 mM final concentration), the cells were pelleted 3 h after induction and stored at −80° C. freezer. Bacterial pellets were resuspended and lysed in phosphate buffer (20 mM NaH2PO4, 500 mM NaCl, 0.05% Tween-20, pH 8.0) containing 0.25 mg/ml lysozyme, 1 mM phenylmethylsulfonyl fluoride, 0.05 mg/ml DNAse and 0.02 mg/ml RNase, followed by brief sonication. After centrifugation (40,000×g, 20 min at 4° C.) the supernatant was applied to a Ni-NTA Superflow cartridge (Qiagen), followed by washing and elution of recombinant neurolysin with phosphate buffer containing 25 and 250 mM imidazole, respectively. The eluted protein was further purified by size exclusion chromatography using a TSK gel BioAssist G2SWxl column (Tosoh bioscience) in AKTA Purifier FPLC system (GE Healthcare). […] Specific activity of recombinant neurolysin was determined by an enzymatic assay described below.
All assays were initiated by addition of QFS (100 μl assay volume in 96-well plates), and each experimental sample was present in duplicate.
In all experiments, test compounds were incubated with neurolysin for 10 min at 37° C. before addition of the substrate to start the reaction. All test compounds were dissolved in DMSO at 10 to 50 mM stock concentrations.
Statistical Analyses—statistical analyses and curve fitting were conducted with GraphPad Prism 6.0 software. For each enzymatic reaction, slope of the line which represents the initial velocity (Vo) for the reaction progress curve was calculated using the liner regression model of the software (Vo=Slope=Δ fluorescent intensity of the reaction product/Δ time). EC50 values for the modulators were calculated by fitting initial velocity values for hydrolysis of QFS by neurolysin in the presence of varying concentrations of a modulator into a nonlinear regression model for the three-parameter log(stimulator) vs. response equation [Y=Bottom+(Top−Bottom)/(1+10^((Log EC50−X)))].

[8] = target: T6, human recombinant neurolysin (Homo sapiens, UniProt Q9BYT8); experiment: Enzymatic assay: QFS hydrolysis by human recombinant neurolysin; format: biochemical
T6 construct: purchased R & D systems 3814-ZN
Description: Enzymatic assays—activity of neurolysin was measured in a continuous assay by documenting the increase in fluorescence occurring upon cleavage of a quenched fluorescent substrate (QFS) Mca-Pro-Leu-Gly-Pro-D-Lys(DNP)-OH (Bachem) (25,36). […] All assays were initiated by addition of QFS (100 μl assay volume in 96-well plates), and each experimental sample was present in duplicate.
Screening of test compounds—primary screening of top-ranked 40 compounds (received from NCI DTP) was carried out at 10 and 100 μM final assay concentrations. […] In all experiments, test compounds were incubated with neurolysin for 10 min at 37° C. before addition of the substrate to start the reaction. […]

mouse brain neurolysin = target: T7, mouse brain neurolysin (Mus musculus, UniProt Q91YP2); experiment: Enzymatic assay: QFS hydrolysis by mouse brain-purified neurolysin; format: biochemical
T7 construct: P10 mouse forebrains were used for purification of native neurolysin; from tissue; host or cells: P10 mouse forebrain, soluble fraction, size-exclusion fraction
Description: In brief, forebrains were homogenized in hypotonic buffer (20 mM NaPO4, pH 7.2) followed by gentle sonication and centrifugation (30 min at 48,000×g at 4° C.). The resulting supernatant was filtered through a 100 kDa cut-off centrifugal filtering unit and concentrated in a 30 kDa cut-off centrifugal filtering unit (Amicon Ultra; Millipore). Neurolysin was semi-purified from the concentrate by size exclusion chromatography using a Superdex 200 Increase 10/300 GL column (GE Healthcare) in AKTA Purifier FPLC system (GE Healthcare). Elution of neurolysin was tracked by the enzymatic assay described below, and the fraction with the highest neurolysin activity was directly used for the experiments.
Enzymatic assays—activity of neurolysin was measured in a continuous assay by documenting the increase in fluorescence occurring upon cleavage of a quenched fluorescent substrate (QFS) Mca-Pro-Leu-Gly-Pro-D-Lys(DNP)-OH (Bachem) (25,36). […]
Statistical Analyses—statistical analyses and curve fitting were conducted with GraphPad Prism 6.0 software. For each enzymatic reaction, slope of the line which represents the initial velocity (Vo) for the reaction progress curve was calculated using the liner regression model of the software (Vo=Slope=Δ fluorescent intensity of the reaction product/Δ time). […]

[9] = QFS 15 μM, absence of dynorphin A (1-13)
[10] = QFS 15 μM, presence of dynorphin A (1-13) 1 μM
[11] = QFS 25 μM, neurolysin 0.3 nM, 100% = no compound

In the case of N[C@@H](Cc1c[nH]cn1)C(=O)NCc1cccc2ccccc12 [Compound 10c, (S)-2-amino-3-(1H-imidazol-4-yl)-N-(naphthalen-1-ylmethyl)propanamide], the “effect on activity of TOP (in words)” value [1] is reported as “No appreciable inhibition”, the “Amax (maximum % activation achieved)” value (Neurolysin (Nln)) is reported as 264 (256.3 to 272.6) % and the “effect on activity of ACE (in words)” value [2] is reported as “no inhibition at the maximum concentration tested”. For the same molecule, the “permeability coefficient (Pe)” value [3] was 1.09±0.09×10^−3 cm/min, the fraction unbound at 4 h, 500 ng/mL ([4]; mouse brain homogenate, read-out: fu in Brain) was 0.052 ± 0.003 and the fraction unbound at 4 h, 500 ng/mL ([4]; mouse plasma, read-out: fu in Plasma) was 0.45 ± 0.013. For the same molecule, the “effect on activity of ACE2 (in words)” value [5] was “no inhibition up to 300 μM” and the “t1/2 Mouse Brain” value [6] was 1.33 h and 1.34 ± 0.033 h.
With N[C@@H](Cc1c[nH]cn1)C(=O)N[C@@H](Cc1c[nH]c2ccccc12)C(=O)O [Compound 4, Histidine-tryptophan] the “fu in Plasma” value ([4]; mouse plasma) was 0.93 ± 0.13 and the half-life at 500 ng/mL (in vitro; plasma) was over 5 h.
For N[C@@H](Cc1c[nH]cn1)C(=O)Nc1cccc2cccnc12 [Compound 11a, (S)-2-amino-3-(1H-imidazol-4-yl)-N-(quinolin-8-yl)propanamide], the “Amax (maximum % activation achieved)” value (Neurolysin (Nln)) was 252.4 (231.4 to 274.9) %, the “effect on activity of ACE (in words)” value [2] was “show inhibition of ACE at high concentration” and the “permeability coefficient (Pe)” value [3] was 1.14±0.02×10^−3 cm/min. For the same molecule, the “effect on activity of ACE2 (in words)” value [5] was “showed inhibition of ACE2 at high concentrations”.
With N[C@@H](Cc1c[nH]cn1)C(=O)NCCc1c[nH]c2ccccc12 [Compound 9d, (S)—N-(2-(1H-indol-3-yl)ethyl)-2-amino-3-(1H-imidazol-4-yl)propanamide] the “effect on activity of TOP (in words)” value [1] was “only exhibited inhibition at concentrations approaching 300 μM”, the “Amax (maximum % activation achieved)” value (Neurolysin (Nln)) was 259 (240.7 to 281) % and the EC50 (Neurolysin (Nln); A50 (concentration required to activate Nln by 50%)) was 6.1 µM. The “effect on activity of ACE (in words)” value [2] was “show inhibition of ACE at high concentration”, the “permeability coefficient (Pe)” value [3] was 1.07±0.12×10^−3 cm/min and the “fu in Plasma” value ([4]; mouse plasma) was 0.63 ± 0.076. For the same molecule, the “effect on activity of ACE2 (in words)” value [5] was “showed inhibition of ACE2 at high concentrations”, the half-life at 500 ng/mL (in vitro; mouse plasma) was over 16.7 h and the “t1/2 Mouse Brain” value [6] was 1.1 h and 1.09 ± 0.07 h.
In the case of N[C@@H](Cc1c[nH]cn1)C(=O)N[C@@H](Cc1ccc(O)cc1)C(=O)O [NlnA#1, L-histidyl-L-tyrosine] (H-His-Tyr-OH), the inhibition at 300 µM [1] is reported as 25.9 ± 0.7%, the inhibition at 300 µM [2] is reported as 22.6 ± 2.5% and the inhibition at 300 µM (neprilysin (NEP)) is reported as 2.9 ± 4.7%. For the same molecule, the “Km value decreased by” value [7] was about 43%, the “Vmax increased by” value [7] was about 29% and the Emax [7, 9] was 292%. The Emax [7, 10] was 238%, the Emax [7, 11] was 235% and the Vmax ([7]; rNln + 40 μM modulator) was 124.2*** FLU/ng protein per min. The Vmax ([7]; rNln + 100 μM modulator) was 164.8*** FLU/ng protein per min, the activity at 10 µM [7] was 121% and the activity at 100 µM [7] was 226%. For the same molecule, the Emax [8] was 204%, the Emax (mouse brain neurolysin) was 190% and the inhibition at 300 µM [5] was 13.4 ± 2.9%.
With NC(Cc1c[nH]cn1)C(=O)NC(Cc1c[nH]cn1)C(=O)O (mixture of isomers) [NlnA#2, D,L-histidyl-D,L-histidine] the inhibition at 300 µM [1] was 15.6 ± 2.6%, the inhibition at 300 µM [2] was 12.2 ± 1.8% and the inhibition at 300 µM (neprilysin (NEP)) was 1.6 ± 2%. The “Km value decreased by” value [7] was about 42.4%, the “Vmax increased by” value [7] was about 16.5% and the Emax [7, 9] was 255%. For the same molecule, the Emax [7, 10] was 198%, the Emax [7, 11] was 203% and the Vmax ([7]; rNln + 40 μM modulator) was 112.5* FLU/ng protein per min. The Vmax ([7]; rNln + 100 μM modulator) was 148.2*** FLU/ng protein per min, the activity at 10 µM [7] was 122% and the activity at 100 µM [7] was 206%. The Emax [8] was 214%, the Emax (mouse brain neurolysin) was 258% and the inhibition at 300 µM [5] was 10.9 ± 2.9%.
